One test relates to Lin− Sca1+ c-kit+ cells. The test is described as follows: Apoptosis assay, annexin V/7-AAD flow cytometry of irradiated Lin- cells, HSC gate. Conditions: for IR-induced apoptosis: 4 Gy. Format: cell-based, mouse. Here is the method:
(§1) Isolation of lineage negative hematopoietic (Lin) cells: BM mononuclear cells were incubated with biotin-conjugated rat antibodies specific for murine CD5, Mac-1, CD45R/B220, Ter-119 and Gr-1. The labeled mature lymphoid and myeloid cells were removed twice after they were incubated with goat anti-rat IgG paramagnetic beads (Dynal Inc, Lake Success, N.Y.) at a bead:cell ratio of approximately 4:1 and exposed to a magnetic field. The isolated Lin- cells were washed twice with 2% FCS/HBSS and resuspended in complete medium (RPMI1640 medium with 10%FCS, 200 mM L-glutamine and 100 U/ml penicillin and streptomycin) at 1×10^6/ml.
(§2) Ionizing radiation (IR). Aliquots of 2 ml of Lin- cells (1×10^6/ml in complete medium) were placed into a cell culture tube and exposed to 4 Gy IR on a rotating platform in a Mark IV^137Cesium gamma-irradiator (JL Shepherd, Glendale, Calif.) at a dose rate of 1.21 Gy/min.
(§3) Apoptosis assays. Lin^− cells (1×10^6/ml in complete medium) were exposed to 4 Gy IR or non-irradiated (Control). They were incubated in wells of a 24-well plate at 37° C., 5% CO2 and 100% humidity for 6 or 18 h. For z-VAD treatment studies, the cells were pre-incubated with vehicle (0.2% DMSO) or 100 μM z-VAD for 1 h prior to IR exposure, or they were treated with z-VAD immediately before or 30 min, 1 h, 2 h or 4 h after IR exposure. After 6 or 18 h incubation, 0.5 ml cells ([…]) were washed once with 1 ml 0.1% BSA/PBS. The cells were centrifuged for 5 min, 350× g at 4° C. Next, the cells were incubated with anti-CD16/32 at 4° C. for 15 min to block the Fcγ receptors and then stained with Sca-1-PE and c-kit-APC antibodies for 20 min at 4° C. in the dark. The cells were washed twice with 1 ml 0.1% BSA/PBS, centrifuged for 5 min, 350× g at RT. Next, 100 μl 1× binding buffer (10 mM HEPES, pH 7.4, 140 mM NaCl, and 2.5 mM CaCl2) was added to the pellet along with 3 μl Annexin V-FITC (Pharmingen, San Diego, Calif.) and 5 μl 7-AAD (10 μg/ml, from Molecular Probes, Eugene, Oreg.). The cell suspension was gently mixed and incubated for 15 min at room temperature. The cells were diluted in 400 μl 1× binding buffer immediately prior to subjection of FACS analysis. In all experiments, PE and APC isotype controls and FITC and 7-AAD positive controls were included as appropriate. Two or four-color flow cytometric analyses were performed using a FACS Caliber (Becton Dickinson, San Jose, Calif.).

The next test relates to mouse BM cells. Briefly: Cobblestone area-forming cell (CAFC) assay of irradiated BM cells. The following applies: 100 μM z-VAD 1 h prior to 4 Gy IR. Format: cell-based. Here is the method:
FIGS. 8A-B. z-VAD partially protects HSC from IR-induced suppression of hematopoietic function. BM cells were pre-incubated with vehicle or 100 μM z-VAD for 1 h and then were exposed to 4 Gy IR. BM cells without IR were used as control. Six hours after the IR, the cells were overlaid on FBMD-1 stromal cell layers. The frequency of CAFC was determined on 7, 14, 21, 28 and 35 days after IR. FIG. 8A—Frequency of CAFC. FIG. 8B—Survival fraction of CAFC as compared to that of control cells. The data presented are mean +/− SEM (n=3 individual mice/groups). Vehicle/IR vs z-VAD/IR, p<0.01 by ANOVA.
z-VAD protects HSC from IR-induced suppression of hematopoietic function. To determine if inhibition of IR-induced HSC apoptosis by z-VAD preserves their hematopoietic function, mouse BM cells were pre-incubated with vehicle (0.2% DMSO) or z-VAD (100 μM) one hour prior to exposure to IR (4 Gy). The hematopoietic function of these cells were analyzed by cobblestone area-forming cell (CAFC) assay (Ploemacher et al., 1989). This in vitro assay provides an estimate of the hematopoietic function of a spectrum of CAFC day-types that correspond to CFU-granulocyte macrophage (CFU-GM) (CAFC day 7), CFU-spleen (CFU-S) day-12 (CAFC day 14), and the primitive HSC with long-term repopulating ability (CAFC day 28-35) (Ploemacher et al., 1989).

A further test deals with Male C57BL/6 mice. The test is described as follows: Protection of mice from IR-induced lethality. Format: in vivo, mouse. As for the experimental part:
FIG. 9. z-VAD protects mice from IR-induced lethality. Male C57BL/6 mice were given two i.p. injections of vehicle (0.25 ml PBS with 0.2% DMSO) or z-VAD (6 mg/kg) at one hour prior to and 5 h after exposure to a lethal dose of IR (10.5 Gy). The survival of these mice was monitored daily up to 24 days after exposure to IR. n=6 mice/group).
z-VAD protects mice from IR-induced lethality. Finally, the inventors examined if z-VAD acts as a radioprotectant to protect mice from IR-induced death. Male C57BL/6 mice were given two i.p. injections of vehicle (0.25 ml PBS with 0.2% DMSO) or z-VAD (6 mg/kg) at one hour prior to and 5 h after exposure to a lethal dose of IR (10.5 Gy). […] In contrast, 50% mice receiving z-VAD injections remain alive up to today (24 days) after IR.

A further test has as its system Lin− Sca1− c-kit+ cells. The test is described as follows: Apoptosis assay, annexin V/7-AAD flow cytometry of irradiated Lin- cells, progenitor gate. The format is cell-based, mouse. As for the experimental part: as §1, §2, §3
(In general: Flow cytometry measures light scatter and fluorescence of single cells or particles in a stream.)

The mark [1] stands for this setting: 100 μM z-VAD 1 h prior to 4 Gy IR.
[2] abbreviates: 100 μM z-VAD 1 h prior to 4 Gy IR, 6 and 18 h post IR.

Residues, ends and D or L forms follow the SMILES beside them. *: point of attachment. Cbz = O=C(OCc1ccccc1)*; CH2F = FC*

`COC(=O)C[C@H](NC(=O)[C@H](C)NC(=O)[C@@H](NC(=O)OCc1ccccc1)C(C)C)C(=O)CF` [z-VAD, Z-Val-Ala-Asp (OCH3)-Fluoromethylketone, methyl ester] (Cbz-Val-Ala-Asp(OMe)-CH2F): the “necrotic cell death (7-AAD+ cells)” value in the test with Lin− Sca1+ c-kit+ cells (setting [1]) and in the test on Lin− Sca1− c-kit+ cells (setting [1]) was “did not lead to an increase” each time. Besides, the “IR-induced reduction of cell numbers” value is “completely prevented” in the test on Lin− Sca1+ c-kit+ cells (setting [2]) and “only partially protected” in the test with Lin− Sca1− c-kit+ cells (setting [2]). In addition, the “IR-induced apoptosis (annexin V+ and annexin V+/7-AAD+ cells)” value in the test on Lin− Sca1+ c-kit+ cells (100 μM z-VAD 1 h prior to 4 Gy IR, 6 h after IR) is listed as “significantly inhibited”; in the test with Lin− Sca1+ c-kit+ cells (100 μM z-VAD 1 h prior to 4 Gy IR, 18 h after IR), “completely protected”; in the test on Lin− Sca1− c-kit+ cells (100 μM z-VAD 1 h prior to 4 Gy IR, 6 and 18 h after IR) it was “attenuated”. The IR-induced apoptosis entry in the test on Lin− Sca1+ c-kit+ cells (100 μM z-VAD given at 4 h post IR) is “only partially inhibited”; with Lin− Sca1+ c-kit+ cells (100 μM z-VAD given prior to IR (-1 h) or up to 2 h post IR), “abrogated”. Moreover, in the test on mouse BM cells (p<0.01), the “CAFC frequency and survival fraction vs vehicle-treated cells exposed to IR” value was “significantly increased”. For the same molecule, in the test on mouse BM cells (CAFC day 7-35), the “survival fraction of CAFC relative to vehicle-treated cells” value is listed as “about 2 fold”. Also, the “survival fraction of CAFC” value with mouse BM cells (CAFC day 7) worked out at 0.211; with mouse BM cells (CAFC day 14), 0.058; in the test on mouse BM cells (CAFC day 21), 0.148; with mouse BM cells (last value of the list, CAFC day 28 or 35 (four values printed for five days)) it was 0.453. Moreover, the “mice alive after IR” value in the test on Male C57BL/6 mice (z-VAD 6 mg/kg i.p. 1 h prior to and 5 h after 10.5 Gy IR, 24 days after IR, n=6) came to 50%. For the same molecule, in the test with Male C57BL/6 mice (z-VAD 6 mg/kg i.p. twice, 1 h prior to and 5 h after 10.5 Gy IR), the “protection from IR-induced death” value was “protected half”. The “numbers of cells as percentage of un-irradiated control cells” value in the test on Lin− Sca1− c-kit+ cells (100 μM z-VAD 1 h prior to 4 Gy IR, 18 h post IR) is “about 29%”. Besides, the “IR-induced apoptosis, compared with the effect in Lin− Sca1+ c-kit+ cells” value in the test on Lin− Sca1− c-kit+ cells (100 μM z-VAD given -1 h to 4 h relative to 4 Gy IR) was “to a less extent”.

The values are drawn from US20070184021A1, “Use of caspase inhibitors as a therapeutic agent against radiation-induced injury” (priority 2002, published 2007).
